# Experimental data as given in PubChem BioAssay AID330 (DTP/NCI, 2004).
# “And” between values parts separate entries of the source, which are not always exact repeats. Equal entries are not always repeated. Inconclusive results and toxic doses are left out.
# Tested on: P388 leukemia ip, CD2F1 mice, survival T/C
# Assay: NCI In Vivo Anticancer Drug Screen. Data for tumor model P388 Leukemia (intraperitoneal) in CD2F1 (CDF1) mice
# Details: endpoint: median survival time, higher = longer survival
# Outline: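 Mice carrying the transplanted tumor received test compound or vehicle. Survival was recorded in each group, and the value is the treated-group measurement divided by that of the vehicle-treated control group.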
# [1] = dose: 50.0 mg/kg/injection, schedule: Q01DX005 (ip), vehicle: Klucel (hydroxypropylcellulose) (HPC)
# [2] = dose: 50.0 mg/kg/injection, schedule: Q01DX009 (ip), vehicle: saline with Tween-80
# [3] = dose: 100.0 mg/kg/injection, schedule: Q01DX009 (ip), vehicle: saline with Tween-80
# [4] = dose: 200.0 mg/kg/injection, schedule: Q01DX009 (ip), vehicle: saline with Tween-80
smiles,measurement,setting,value
CC1(C)CC(Nc2ccccc2)=CC(Nc2ccccc2)=N1,T/C,[1],105 % of control
same,T/C,"dose: 100.0 mg/kg/injection, schedule: Q01DX005 (ip), vehicle: Klucel (hydroxypropylcellulose) (HPC)",98 % of control
same,T/C,"dose: 200.0 mg/kg/injection, schedule: Q01DX005 (ip), vehicle: Klucel (hydroxypropylcellulose) (HPC)",105 % of control
CCOC(=O)C(CC(C)C)NC(=O)C(Cc1ccc(N(CCCl)CCCl)cc1)NC(C)=O (centres undefined),T/C,"dose: 0.25 mg/kg/injection, schedule: Q01DX009 (ip), vehicle: saline",101 % of control
same,T/C,"dose: 0.5 mg/kg/injection, schedule: Q01DX009 (ip), vehicle: saline",115 % of control
same,T/C,"dose: 1.0 mg/kg/injection, schedule: Q01DX009 (ip), vehicle: saline",111 % of control
same,T/C,"dose: 2.0 mg/kg/injection, schedule: Q01DX009 (ip), vehicle: Klucel (hydroxypropylcellulose) (HPC)",109 % of control
same,T/C,"dose: 2.0 mg/kg/injection, schedule: Q01DX009 (ip), vehicle: olive oil, sesame oil, peanut oil",111 % of control
same,T/C,"dose: 2.0 mg/kg/injection, schedule: Q01DX009 (ip), vehicle: saline with Tween-80",100 % of control
same,T/C,"dose: 4.0 mg/kg/injection, schedule: Q01DX009 (ip), vehicle: Klucel (hydroxypropylcellulose) (HPC)",110 % of control
same,T/C,"dose: 4.0 mg/kg/injection, schedule: Q01DX009 (ip), vehicle: olive oil, sesame oil, peanut oil",120 % of control
same,T/C,"dose: 4.0 mg/kg/injection, schedule: Q01DX009 (ip), vehicle: saline with Tween-80",100 % of control
same,T/C,"dose: 8.0 mg/kg/injection, schedule: Q01DX009 (ip), vehicle: Klucel (hydroxypropylcellulose) (HPC)",120 % of control
same,T/C,"dose: 8.0 mg/kg/injection, schedule: Q01DX009 (ip), vehicle: saline with Tween-80",109 % of control
same,T/C,"dose: 8.0 mg/kg/injection, schedule: Q01DX009 (ip), vehicle: saline",163 % of control
same,T/C,"dose: 12.5 mg/kg/injection, schedule: Q01DX005 (iv), vehicle: Klucel (hydroxypropylcellulose) (HPC)",116 % of control
same,T/C,"dose: 16.0 mg/kg/injection, schedule: Q01DX009 (ip), vehicle: saline with Tween-80",111 % of control
same,T/C,"dose: 16.0 mg/kg/injection, schedule: Q01DX009 (ip), vehicle: saline",163 % of control and 225 % of control
same,T/C,"dose: 16.0 mg/kg/injection, schedule: Q04DX003 (ip), vehicle: saline with Tween-80",152 % of control
same,T/C,"dose: 18.9 mg/kg/injection, schedule: Q04DX003 (ip), vehicle: saline with Tween-80",152 % of control
same,T/C,"dose: 25.0 mg/kg/injection, schedule: Q01DX005 (ip), vehicle: Klucel (hydroxypropylcellulose) (HPC)",174 % of control
same,T/C,"dose: 28.4 mg/kg/injection, schedule: Q04DX003 (ip), vehicle: saline with Tween-80",161 % of control
same,T/C,"dose: 32.0 mg/kg/injection, schedule: Q01DX009 (ip), vehicle: Klucel (hydroxypropylcellulose) (HPC)",172 % of control
same,T/C,"dose: 32.0 mg/kg/injection, schedule: Q01DX009 (ip), vehicle: olive oil, sesame oil, peanut oil",175 % of control
same,T/C,"dose: 32.0 mg/kg/injection, schedule: Q01DX009 (ip), vehicle: saline with Tween-80",117 % of control
same,T/C,"dose: 32.0 mg/kg/injection, schedule: Q04DX003 (ip), vehicle: saline with Tween-80",189 % of control
same,T/C,"dose: 42.6 mg/kg/injection, schedule: Q04DX003 (ip), vehicle: saline with Tween-80",172 % of control
same,T/C,[1],230 % of control
same,T/C,"dose: 50.0 mg/kg/injection, schedule: Q01DX005 (iv), vehicle: Klucel (hydroxypropylcellulose) (HPC)",156 % of control
same,T/C,"dose: 64.0 mg/kg/injection, schedule: Q01DX009 (ip), vehicle: Klucel (hydroxypropylcellulose) (HPC)",151 % of control
same,T/C,"dose: 64.0 mg/kg/injection, schedule: Q04DX003 (ip), vehicle: saline with Tween-80",188 % of control and 211 % of control
same,T/C,"dose: 96.0 mg/kg/injection, schedule: Q04DX003 (ip), vehicle: saline with Tween-80",170 % of control
same,T/C,"dose: 128.0 mg/kg/injection, schedule: Q01DX009 (ip), vehicle: saline with Tween-80",152 % of control
same,T/C,"dose: 256.0 mg/kg/injection, schedule: Q01DX009 (ip), vehicle: other",151 % of control
same,T/C,"dose: 256.0 mg/kg/injection, schedule: Q01DX009 (ip), vehicle: saline with Tween-80",152 % of control and 157 % of control
same,T/C,"dose: 512.0 mg/kg/injection, schedule: Q01DX009 (ip), vehicle: other",179 % of control
same,T/C,"dose: 512.0 mg/kg/injection, schedule: Q01DX009 (ip), vehicle: saline with Tween-80",185 % of control
Cn1c(=O)c2c(ncn2-c2ccc(N)cc2)n(C)c1=O,T/C,"dose: 1.56 mg/kg/injection, schedule: Q01DX005 (ip), vehicle: water",95 % of control
same,T/C,"dose: 3.12 mg/kg/injection, schedule: Q01DX005 (ip), vehicle: water",105 % of control
same,T/C,"dose: 6.25 mg/kg/injection, schedule: Q01DX005 (ip), vehicle: other",104 % of control
same,T/C,"dose: 6.25 mg/kg/injection, schedule: Q01DX005 (ip), vehicle: water",96 % of control
same,T/C,"dose: 12.5 mg/kg/injection, schedule: Q01DX005 (ip), vehicle: other",106 % of control
same,T/C,"dose: 12.5 mg/kg/injection, schedule: Q01DX005 (ip), vehicle: water",102 % of control
same,T/C,"dose: 25.0 mg/kg/injection, schedule: Q01DX005 (ip), vehicle: other",101 % of control
same,T/C,"dose: 50.0 mg/kg/injection, schedule: Q01DX005 (ip), vehicle: water",101 % of control
Clc1cccc(N=Cc2ccc(C=Nc3cccc(Cl)c3)cc2)c1,T/C,"dose: 50.0 mg/kg/injection, schedule: Q01DX009 (ip), vehicle: Klucel (hydroxypropylcellulose) (HPC)",94 % of control
same,T/C,"dose: 100.0 mg/kg/injection, schedule: Q01DX009 (ip), vehicle: Klucel (hydroxypropylcellulose) (HPC)",98 % of control
COC1NC(=O)NC(=O)C1=[N+]=[N-] (centres undefined),T/C,"dose: 2.5 mg/kg/injection, schedule: Q01DX009 (ip), vehicle: saline",168 % of control
same,T/C,"dose: 5.0 mg/kg/injection, schedule: Q01DX009 (ip), vehicle: saline sonified",163 % of control
same,T/C,"dose: 5.0 mg/kg/injection, schedule: Q01DX009 (ip), vehicle: saline with Tween-80",154 % of control
same,T/C,"dose: 7.5 mg/kg/injection, schedule: Q01DX009 (ip), vehicle: saline with Tween-80",191 % of control
same,T/C,"dose: 10.0 mg/kg/injection, schedule: Q01DX009 (ip), vehicle: saline sonified",159 % of control
same,T/C,"dose: 75.0 micrograms/kg/injection, schedule: Q01DX009 (ip), vehicle: saline",109 % of control
same,T/C,"dose: 150.0 micrograms/kg/injection, schedule: Q01DX009 (ip), vehicle: saline",113 % of control
COc1cc2c(cc1Oc1ccc(OC)c3c1CC1c4c(cc(OC)c(OC)c4-3)CCN1C)CC1c3c(cc(OC)c(OC)c3-2)CCN1C (centres undefined),T/C,"dose: 20.0 mg/kg/injection, schedule: Q01DX009 (ip), vehicle: water",94 % of control
same,T/C,"dose: 40.0 mg/kg/injection, schedule: Q01DX009 (ip), vehicle: water",101 % of control
same,T/C,"dose: 80.0 mg/kg/injection, schedule: Q01DX009 (ip), vehicle: water",93 % of control
same,T/C,"dose: 160.0 mg/kg/injection, schedule: Q01DX009 (ip), vehicle: water",93 % of control
CC(C)(C)NC1/C(=C\c2ccccc2)C(=O)c2ccccc2C1(C)C (centres undefined),T/C,"dose: 25.0 mg/kg/injection, schedule: Q01DX009 (ip), vehicle: other",109 % of control
same,T/C,"dose: 50.0 mg/kg/injection, schedule: Q01DX009 (ip), vehicle: other",101 % of control
same,T/C,"dose: 100.0 mg/kg/injection, schedule: Q01DX009 (ip), vehicle: other",110 % of control
same,T/C,"dose: 200.0 mg/kg/injection, schedule: Q01DX009 (ip), vehicle: other",124 % of control
CS(=O)(=O)OCCN(CCOS(C)(=O)=O)c1cccc(Cl)c1,T/C,"dose: 1.25 mg/kg/injection, schedule: Q01DX009 (ip), vehicle: other",95 % of control
same,T/C,"dose: 2.5 mg/kg/injection, schedule: Q01DX009 (ip), vehicle: other",122 % of control
same,T/C,"dose: 10.0 mg/kg/injection, schedule: Q01DX009 (ip), vehicle: other",186 % of control
COc1nc2c(c(O)cn2C2OCC(OC(C)=O)C(OC(C)=O)C2OC(C)=O)c(=O)n1C (centres undefined),T/C,"dose: 100.0 mg/kg/injection, schedule: Q01DX001 (ip), vehicle: saline with Tween-80",106 % of control
same,T/C,"dose: 200.0 mg/kg/injection, schedule: Q01DX001 (ip), vehicle: saline with Tween-80",92 % of control
same,T/C,"dose: 400.0 mg/kg/injection, schedule: Q01DX001 (ip), vehicle: saline with Tween-80",99 % of control
CCS/C(C#N)=C/c1ccccc1,T/C,[2],109 % of control
same,T/C,[3],115 % of control
CC(C)CC(=O)CC(O)(C(F)(F)F)C(F)(F)F,T/C,[3],109 % of control
same,T/C,[4],113 % of control
ClC1c2ccccc2-c2nsnc2C1Cl (centres undefined),T/C,"dose: 25.0 mg/kg/injection, schedule: Q01DX009 (ip), vehicle: saline with Tween-80",107 % of control
same,T/C,[2],90 % of control
same,T/C,[3],90 % of control
same,T/C,[4],100 % of control
CCOC(=O)CC(=O)c1ccoc1,T/C,"dose: 50.0 mg/kg/injection, schedule: Q01DX005 (ip), vehicle: saline with Tween-80",110 % of control
same,T/C,"dose: 100.0 mg/kg/injection, schedule: Q01DX005 (ip), vehicle: saline with Tween-80",105 % of control
same,T/C,"dose: 200.0 mg/kg/injection, schedule: Q01DX005 (ip), vehicle: saline with Tween-80",110 % of control
